From publication PMC10142505, “Synthesis, Evaluation of Enzyme Inhibition and Redox Properties of Potential Dual COX-2 and 5-LOX Inhibitors” (Pharmaceuticals, 2023)
Marks after values point to notes of the source that are not given here.

Legend:
human serum pool = experiment: Redox activity (oxy score from TOS, PAB, TAS, SHG) in vitro in human serum pool; details: 37 °C, median (interquartile range); for Oxy score (OS), 2 h incubation, TBH added / Oxy score (OS), 24 h incubation, TBH added: with TBH added; for Oxy score (OS), 2 h incubation / Oxy score (OS), 24 h incubation: without TBH; for Oxy score (OS), 2 h incubation: average of five concentrations
Description: The remains of the serum samples were taken from healthy subjects after biochemical analysis; these subjects participated in regular medical examinations at the Military Medical Academy in Belgrade and consented to the formation of a serum pool. Neither the patients’ data nor their identities were used. Serum pool samples were prepared and aliquoted (450 µL portions) according to the routine procedure for in-house controle samples and preserved at the -80 °C until analysis. Five serial dilutions of the tested compounds (concentrations: 1000 µM, 500 µM, 250 µM, 125 µM and 62.5 µM) were added alone (50 µL) or in combination (25 µL) with oxidant TBH (25 µM) into 450 µL of serum. The compounds were dissolved in dimethyl sulfoxide (DMSO) for stock solution (1000 µM), while a PBS buffer (phosphate buffered saline) pH = 7.4 was used for serial dilutions (500 µM, 250 µM, 125 µM and 62.5 µM). Deionized water was used as a blank. DMSO and buffer pH = 7.4 were used as a control, while trolox solution (2 mmol/L) was used as a standard. All samples were incubated in duplicate for 2 h and 24 h at 37 °C.
Oxidative stress parameters (total antioxidative status (TAS), total oxidative status (TOS), total concentration of sulfhydryl group (SHG) and prooxidative–antioxidative balance (PAB)) were determined in order to calculate prooxidative score, antioxidative score and oxy score (OS). These parameters were determined in serum.
Total antioxidative status (TAS) was measured using Erel’s method, which was further optimized by Kotur-Stevuljevic et al. in 2015 [34]. ABTS (2,2-azino-bis(3-ethyl-benzthiazoline-6-sulfonic acid) is oxidized to a green-colored ABTS^+ cation by hydrogen peroxide in the acetate buffer (pH = 3.6). This stable cation is chromogen, and the presence of antioxidants in the samples causes its discoloration proportional to their concentrations. The absorbance was measured using a SPECTROstar Nano Microplate Reader (BMG Labtech, Ortenberg, Germany). The reaction was calibrated with Trolox and the TAS values are expressed as mmol trolox equivalent/L.
Total oxidative status (TOS) was measured using Erel’s method. Here, a ferrous ion-o-dianisidine complex is oxidized to ferric ion by the oxidants present in the sample. The ferric ion forms a colored complex with xylenol orange in an acidic environment and in the presence of glycerol. The intensity of the color of the formed complex is proportional to the total contents of oxidants in the sample. The absorbance was measured at 560 nm using a SPECTROstar Nano Microplate Reader (BMG Labtech, Ortenberg, Germany). The reaction was calibrated with hydrogen peroxide and the TOS values are expressed as µmol H2O2 equivalent/L.
Prooxidant–antioxidant balance (PAB) was measured according to procedures in the literature. Here, hydrogen peroxide is determined in the presence of antioxidants in the sample. Both of them (hydrogen peroxide and antioxidants (including uric acid)) react with chromogen TMB (3,3′,5,5′-tetramethylbenzidine) simultaneously. The hydrogen peroxide and chromogen reaction is enzymatically catalyzed with peroxidase, while the antioxidants–chromogen reaction is non-enzymatic. The intense blue color, produced as a result of the reaction between hydrogen peroxide and TMB, is decolorized by the reaction of the antioxidant with the TMB. The resulting color (result of two competitive reactions) is proportional to the ratio of antioxidants to prooxidants. The absorbance was measured at 450 nm. Different ratios of hydrogen peroxide and uric acid solutions were used to make a standard curve. The PAB results are expressed in hydrogen peroxide concentrations.
Total Sulfydryl Groups Content (SHG) was measured using a modified version of Ellman’s method. This method is based on the reaction between DTNB ([…]) and aliphatic thiol compounds in an alkaline environment (pH = 9.0). […]

COc1ccc2c(c1)c(CNC(=O)NO)c(C)n2C(=O)c1ccc(Cl)cc1 [Compound 1, N’-hydroxy-N-[(1-(4-chlorobenzoyl)-5-methoxy-2-methyl-3-indolyl)methyl]urea]
Oxy score (OS), 2 h incubation, TBH added (human serum pool): 6.44 (5.51–7.02) | Oxy score (OS), 2 h incubation (human serum pool): −0.43 (−1.27–3.13) | Oxy score (OS), 24 h incubation, TBH added (human serum pool): 5.46 (4.96–6.20) | Oxy score (OS), 24 h incubation (human serum pool): 0.71 (0.51–0.80)

CC(NC(=O)NO)c1ccc(-c2ccccc2)c(F)c1 (stereo not shown) [Compound 2]
Oxy score (OS), 2 h incubation, TBH added (human serum pool): 5.20 (3.70–5.42) | Oxy score (OS), 2 h incubation (human serum pool): 3.28 (−0.68–16.66) | Oxy score (OS), 24 h incubation, TBH added (human serum pool): 6.79 (4.37–7.90) | Oxy score (OS), 24 h incubation (human serum pool): 0.33 (−0.07–0.85)

O=C(NO)NCc1ccccc1Nc1c(Cl)cccc1Cl [Compound 3, N’-hydroxy-N-[(2-(2,6-dichloroanilino)phenyl)methyl]urea]
Oxy score (OS), 2 h incubation, TBH added (human serum pool): 5.81 (4.64–7.25) | Oxy score (OS), 2 h incubation (human serum pool): 1.58 (−0.38–3.45) | Oxy score (OS), 24 h incubation, TBH added (human serum pool): 1.93 (0.65–5.02) ^# | Oxy score (OS), 24 h incubation (human serum pool): 1.31 (−0.31–1.75)

COC(=O)C(Cc1c[nH]cn1)NC(=O)c1cc(C(C)(C)C)c(O)c(C(C)(C)C)c1 (stereo not shown) [Compound 4, 2-(3,5-di-tert-butyl-4-hydroxy-benzoylamino)-3-(1H-imidazol-4-yl)-propionic acid methyl ester]
melting point: 117 to 119 °C | Oxy score (OS), 2 h incubation, TBH added (human serum pool): 3.68 (3.36–8.40) | Oxy score (OS), 2 h incubation (human serum pool): 0.24 (−0.24–0.89) | Oxy score (OS), 24 h incubation, TBH added (human serum pool): 7.86 (7.20–10.68) | Oxy score (OS), 24 h incubation (human serum pool): 3.00 (1.99–3.93) **

COC(=O)CNC(=O)c1cc(C(C)(C)C)c(O)c(C(C)(C)C)c1 [Compound 5, (3,5-di-tert-butyl-4-hydroxy-benzoylamino)-acetic acid methyl ester]
melting point: 130 to 132 °C | Oxy score (OS), 2 h incubation, TBH added (human serum pool): 2.83 (2.55–3.39) | Oxy score (OS), 2 h incubation (human serum pool): 0.29 (−0.30–1.23) | Oxy score (OS), 24 h incubation, TBH added (human serum pool): 5.64 (5.07–6.47) | Oxy score (OS), 24 h incubation (human serum pool): 2.14 (1.37–2.62) **

C=CCNC(=O)c1cc(C(C)(C)C)c(O)c(C(C)(C)C)c1 [Compound 6, N-allyl-3,5-di-tert-butyl-4-hydroxy-benzamide]
melting point: 182 to 183.5 °C | Oxy score (OS), 2 h incubation, TBH added (human serum pool): 3.77 (3.37–4.20) | Oxy score (OS), 2 h incubation (human serum pool): 0.52 (0.08–1.52) | Oxy score (OS), 24 h incubation, TBH added (human serum pool): 6.07 (4.34–7.02) | Oxy score (OS), 24 h incubation (human serum pool): 3.09 (2.50–3.67)

C#CCNC(=O)c1cc(C(C)(C)C)c(O)c(C(C)(C)C)c1 [Compound 7, 3,5-di-tert-butyl-4-hydroxy-N-prop-2-ynyl-benzamide]
melting point: 178.5 to 180 °C | Oxy score (OS), 2 h incubation, TBH added (human serum pool): 6.62 (6.42–6.98) | Oxy score (OS), 2 h incubation (human serum pool): 3.12 (2.21–3.47) | Oxy score (OS), 24 h incubation, TBH added (human serum pool): 10.54 (4.45–27.42) | Oxy score (OS), 24 h incubation (human serum pool): 2.55 (2.18–2.92)

CCOc1ccccc1NC(=O)N(C)C [Compound 8, 3-(2-ethoxy-phenyl)-1,1-dimethyl-urea]
melting point: 71.5 to 72.5 °C | Oxy score (OS), 2 h incubation, TBH added (human serum pool): 8.43 (5.76–13.81) | Oxy score (OS), 2 h incubation (human serum pool): 0.03 (−0.96–1.46) | Oxy score (OS), 24 h incubation, TBH added (human serum pool): −0.55 (−0.67–1.48) ^## | Oxy score (OS), 24 h incubation (human serum pool): −0.52 (−1.24–3.03)

CN(C)C(=O)Nc1ccccc1C(=O)O [Compound 9, 2-(3,3-dimethyl-ureido)-benzoic acid]
melting point: 158 to 159.5 °C | Oxy score (OS), 2 h incubation, TBH added (human serum pool): 5.97 (4.06–8.25) | Oxy score (OS), 2 h incubation (human serum pool): 0.09 (−0.79–1.80) | Oxy score (OS), 24 h incubation, TBH added (human serum pool): −0.19 (−0.68–1.56) | Oxy score (OS), 24 h incubation (human serum pool): −0.18 (−1.55–2.91)

CCOc1ccccc1NC(=O)Nc1ccc([N+](=O)[O-])cc1 [Compound 10, 1-(2-ethoxy-phenyl)-3-(4-nitro-phenyl)-urea]
melting point: 178 to 181 °C | Oxy score (OS), 2 h incubation, TBH added (human serum pool): 6.34 (5.07–22.02) | Oxy score (OS), 24 h incubation, TBH added (human serum pool): 0.97 (−0.04–4.08) | Oxy score (OS), 24 h incubation (human serum pool): −0.97 (−1.53–3.85)

CC(=O)N(O)C(C)c1ccc(CC(C)C)cc1 (stereo not shown) [Compound 11]
Oxy score (OS), 2 h incubation, TBH added (human serum pool): 5.15 (4.76–6.74) | Oxy score (OS), 2 h incubation (human serum pool): −0.22 (−0.65–0.82) | Oxy score (OS), 24 h incubation, TBH added (human serum pool): 3.18 (2.92–3.60) ^## | Oxy score (OS), 24 h incubation (human serum pool): 1.83 (1.49–2.18) *

COc1ccc2cc(C(C)N(O)C(C)=O)ccc2c1 (stereo not shown) [Compound 12, N-hydroxy-N-[1-(6-methoxy-naphthalen-2-yl)-ethyl]-acetamide]
Oxy score (OS), 2 h incubation, TBH added (human serum pool): 4.79 (4.25–5.43) | Oxy score (OS), 2 h incubation (human serum pool): 0.24 (−0.06–0.58) | Oxy score (OS), 24 h incubation, TBH added (human serum pool): 3.97 (3.44–6.33) | Oxy score (OS), 24 h incubation (human serum pool): 2.49 (2.03–2.66) **

CC(C)(C)c1cc(C=C2SC(=S)N(N)C2=O)cc(C(C)(C)C)c1O [Compound 13, 3-amino-5-(3,5-di-tert-butyl-4-hydroxy-benzylidene)-2-thioxo-thiazolidin-4-one]
melting point: 244.5 to 246.5 °C | Oxy score (OS), 2 h incubation, TBH added (human serum pool): 5.89 (5.63–6.14) | Oxy score (OS), 2 h incubation (human serum pool): 0.75 (0.56–0.94) | Oxy score (OS), 24 h incubation (human serum pool): 0.64 (0.19–1.01)
